Results published in ChEMBL document CHEMBL1129773, “Novel 1,2-diarylcyclobutenes: Selective and orally active cox-2 inhibitors” (Bioorg Med Chem Lett, 1996).

Key:
[1] = target: T1, Prostaglandin G/H synthase 2 (Homo sapiens, UniProt P35354); type: cell-based, CHO
T1 sequence (P35354 whole entry): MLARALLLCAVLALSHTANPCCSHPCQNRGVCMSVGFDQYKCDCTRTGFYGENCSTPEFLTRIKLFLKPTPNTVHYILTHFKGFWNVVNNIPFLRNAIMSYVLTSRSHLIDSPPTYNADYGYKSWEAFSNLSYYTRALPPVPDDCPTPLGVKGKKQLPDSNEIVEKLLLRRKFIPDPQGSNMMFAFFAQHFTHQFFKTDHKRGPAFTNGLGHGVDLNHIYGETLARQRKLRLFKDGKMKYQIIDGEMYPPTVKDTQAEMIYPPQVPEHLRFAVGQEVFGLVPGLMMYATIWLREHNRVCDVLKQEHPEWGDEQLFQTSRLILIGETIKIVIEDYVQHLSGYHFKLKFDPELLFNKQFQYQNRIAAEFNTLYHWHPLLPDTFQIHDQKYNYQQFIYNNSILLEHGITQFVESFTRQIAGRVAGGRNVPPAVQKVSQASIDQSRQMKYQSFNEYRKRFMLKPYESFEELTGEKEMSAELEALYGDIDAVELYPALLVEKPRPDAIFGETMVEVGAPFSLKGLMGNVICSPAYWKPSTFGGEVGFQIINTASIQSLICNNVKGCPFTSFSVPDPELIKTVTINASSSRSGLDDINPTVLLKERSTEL

[2] = target: Prostaglandin G/H synthase 1 (Homo sapiens, UniProt P23219)
Prostaglandin G/H synthase 1, sequence (P23219 whole entry): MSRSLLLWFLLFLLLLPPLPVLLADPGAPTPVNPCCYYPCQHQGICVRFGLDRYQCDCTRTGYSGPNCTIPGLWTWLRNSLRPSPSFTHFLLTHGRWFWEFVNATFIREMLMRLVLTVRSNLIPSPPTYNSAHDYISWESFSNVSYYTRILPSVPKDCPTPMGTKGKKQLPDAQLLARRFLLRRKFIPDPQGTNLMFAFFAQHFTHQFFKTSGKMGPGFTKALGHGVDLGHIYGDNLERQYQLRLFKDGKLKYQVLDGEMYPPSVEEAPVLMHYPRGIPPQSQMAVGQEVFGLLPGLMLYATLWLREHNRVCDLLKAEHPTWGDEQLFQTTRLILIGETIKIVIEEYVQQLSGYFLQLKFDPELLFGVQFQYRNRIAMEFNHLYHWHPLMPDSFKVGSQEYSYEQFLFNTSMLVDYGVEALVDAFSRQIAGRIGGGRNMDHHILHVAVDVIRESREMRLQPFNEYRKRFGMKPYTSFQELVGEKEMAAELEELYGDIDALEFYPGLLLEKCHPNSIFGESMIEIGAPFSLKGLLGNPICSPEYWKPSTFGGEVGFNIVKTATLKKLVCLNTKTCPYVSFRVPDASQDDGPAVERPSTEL

[3] = Compound was tested for plasma concentration in rats when administered at 20 mg/kg in 1% methocel at 1 hr; type: ADME, organism-based; design: dose 20 mg/kg; conditions: rat, read-out: Cmax
Rattus norvegicus [4] = test: Compound was tested in vivo for efficacy in the rat paw edema assay upon oral administration.; type: functional
Rattus norvegicus [5] = organism: Rattus norvegicus; test: animal or person; conditions: po, read-out: Inhibition
in vivo = conditions: rat, plasma, 20 mg/kg
Description: Compound was tested for plasma concentration in rats when administered at 20 mg/kg in 1% methocel at 2 hr

IC50 [1] [µM]	IC50 [2] [µM]	concentration at 1 h [3] [µM]	concentration at 2 h (in vivo) [µM]	Compound	ED50 (Rattus norvegicus [4]) [mg/kg]	inhibition in vivo at 30 mg/kg (Rattus norvegicus [5]) [%]
0.0022	0.12			C=C1C(c2ccccc2)=C(c2ccc(S(C)(=O)=O)cc2)C1(C)C		
> 5				CS(=O)(=O)c1ccc(C2=C(c3ccccc3)CC2)cc1		
0.11	4.4			CS(=O)(=O)c1ccc(C2=C(c3ccccc3)C(=O)C2)cc1		
		7.5		CC1(C)C(=O)C(c2ccccc2)=C1c1ccc(S(C)(=O)=O)cc1	2.4	
	0.14			CS(=O)(=O)c1ccc(C2=C(c3ccc(F)cc3)CC3(CC3)C2)cc1		38
	2	8.5		CC1(C)C(=O)C(c2ccc(S(C)(=O)=O)cc2)=C1c1ccccc1	2.7	
			0.7	CS(=O)(=O)c1ccc(-c2cc(Br)sc2-c2ccc(F)cc2)cc1 [DUP-697]	1.3	
	0.54	1		C=C1CC(c2ccc(S(C)(=O)=O)cc2)=C1c1ccccc1	5.5	
0.005	0.37			CC1(C)C(=O)C(c2ccc(F)cc2)=C1c1ccc(S(C)(=O)=O)cc1		

Compound	IC50 [1] [µM]	IC50 [2] [µM]	concentration at 1 h [3] [µM]	concentration at 2 h (in vivo) [µM]	ED50 (Rattus norvegicus [4]) [mg/kg]	inhibition in vivo at 30 mg/kg (Rattus norvegicus [5]) [%]
CC1(C)C(c2ccc(S(C)(=O)=O)cc2)=C(c2ccccc2)/C1=N/O	0.061	34	1.8		4.2	
CS(=O)(=O)c1ccc(C2=C(c3ccccc3)C(=O)C23CCCC3)cc1	0.012	0.5				
CC1(C)C(c2ccc(S(C)(=O)=O)cc2)=C(c2ccccc2)C1O (configuration not stated)	0.53	45				
